According to publication PMC3386246 (PLoS Pathogens, 2012):

Target: T1, NtrC D54E (Escherichia coli, UniProt P0AFB8, D54E)
T1 construct: gene glnG
Assay: biochemical
Conditions: read-out: % inhibition at 250 μM

T1 sequence (P0AFB8 whole entry D54E): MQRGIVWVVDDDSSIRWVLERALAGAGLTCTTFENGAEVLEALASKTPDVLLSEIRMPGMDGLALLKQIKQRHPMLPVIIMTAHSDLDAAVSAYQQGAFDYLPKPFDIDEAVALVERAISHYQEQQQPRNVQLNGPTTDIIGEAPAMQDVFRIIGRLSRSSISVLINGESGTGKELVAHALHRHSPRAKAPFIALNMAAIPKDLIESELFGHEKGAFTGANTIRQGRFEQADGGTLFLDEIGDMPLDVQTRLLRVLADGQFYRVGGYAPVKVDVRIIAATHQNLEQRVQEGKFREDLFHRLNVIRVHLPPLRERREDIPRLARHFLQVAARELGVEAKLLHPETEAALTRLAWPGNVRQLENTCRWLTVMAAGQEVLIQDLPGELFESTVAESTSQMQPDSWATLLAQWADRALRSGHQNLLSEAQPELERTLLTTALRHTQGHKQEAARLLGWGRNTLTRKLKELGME

SMILES	inhibition at 250 µM
CC(C)COC(=O)CSc1n[nH]c(=O)[nH]c1=O [compound 11]	~10%
CC(C)(C)COC(=O)CSc1n[nH]c(=O)[nH]c1=O [compound 12]	~10%
